Test system: mitochondrial complexes I-V, VDAC, cytochrome c
Assay: Western blot of rectus femoris, mitochondrial content proteins
Format: in vivo, CD2F1 mice
Settings: C26+5FU+Quer vs C26+5FU; p=0.01
Experimental: Protein isolation and western blotting was completed similar to what has been previously described. See, Sougiannis, A. T., et al., Impact of weight loss and partial weight regain on immune cell and inflammatory markers in adipose tissue in male mice. J Appl Physiol (1985), 2020. 129(4): p. 909-919. The rectus femoris (RF) was teased from the other quadriceps muscles, cut in half (proximal/distal), snap frozen in liquid nitrogen, and stored at −80° C. The distal RF was homogenized in Mueller Buffer (50 mM Hepes, 0.1% Triton-x, 4 mM EGTA, 10 mM EDTA, 15 mM Na4P207, 100 mM β-glycerophosphate, 25 mM NaF, and 5 mM NaVO4, with protease inhibitor cocktail) using a bead homogenizer at 4° C. Samples were centrifuged and the supernatant was collected and diluted with a diluent buffer (50% Glycerol, 50 mM Na4P2O7, 2.5 mM EGTA, and 1 mM β-mercaptoethanol with protease inhibitor cocktail). Protein concentrations were determined using the Bradford standard protein assay and protein integrity was confirmed with SDS-PAGE and amido black staining. Between 10-50 μg of muscle protein homogenate was separated via SDS-PAGE and transferred to a PVDF membrane. Membranes were stained with Ponceau Red to confirm even loading and transfer efficiency. […] Images were then scanned, and relative protein expression was determined with ImageJ. […]

Q: Which “change in expression of cytochrome c” value does the source give for `O=c1c(O)c(-c2ccc(O)c(O)c2)oc2cc(O)cc(O)c12` [quercetin, 3,4,5,7-pentahydroxylflavone] here?
A: 48.9%

Reference: patent US20260191818A1 (University of South Carolina, priority 2022, published 2026)
